Test results published in patent US20250042891A1, “Compound containing structure of a heteroaromatic ring, pharmaceutical composition thereof and application thereof” (SHANGHAI YINGLI PHARMACEUTICAL CO., LTD, priority 2023, published 2025).
pIC50: −log10 of the molar value.

Experiments:
PARG (389-976) = PARG (389-976) (Homo sapiens (Human), UniProt Q86W56); experiment: PARG enzyme inhibition assay (TR-FRET); assay type: biochemical
Protocol: PARG in vitro assays were conducted in standard 384-well plates in a total volume of 15 μL. 5 μL of PARG (389-976) (manufactured by Chempartner Chemical Co., Ltd.) in buffer (50 mM Tris-HCL 7.5, 30 mM KCl, 1 mM EDTA, 3 mM DTT, tween-20 0.01%, BSA 0.025%) was added at a final concentration of 1.5 pM to the 384-well plates containing the compounds to be tested, which was incubated for 30 min at room temperature. To the above mixture was added 5 μL Bio PARylated His-TEV-PARP1(2-1014) substrate (manufactured by Chempartner Chemical Co., Ltd.) at a final concentration of 12 nM, after addition, the resulting mixture was incubated for 30 minutes at room temperature. Then to the mixture was added detection reagent (5 μL) which was buffered with 50 mM Tris-HCL 7.5, 30 mM KCl, 1 mM EDTA, 3 mM DTT, tween-20 0.01%, BSA 0.025%, and consisted of 3 μM of compound PDD00017273 and 9 nM Mab anti-6HIS XL665 (Cisbio: 61HISXLA) and 0.9 nM streptavidin affinity terbium cryptate (Cisbio:610SATLA), all at 3× working concentrations (final concentrations of 1 μM, 3 nM and 0.3 nM, respectively). After 120 min incubation in the dark at room temperature, TR-FRET signals were measured at Ex 340 and Em 665 and Em 615. The ratio for each well was calculated as Em 665/Em 615 and the compound inhibition rate was calculated based on the obtained data.

HCC1428 = experiment: CTG assay for proliferation inhibition of cell lines; assay type: cell-based; conditions: HCC1428, 7 days, CellTiter Glo
Protocol: (§1) The assay was conducted on either 384-well plates or 96-well plates. The procedures are as follows:
(§2) The cell suspensions were added to 384- or 96-well plates (384-well plate: 50 μL; 96-well plate: 100 μL) except for peripheral wells. The plates were incubated in a carbon dioxide incubator overnight, HCC1395, HCC1428 and NCI-H460 were placed in a carbon dioxide incubator of 5%, […] overnight. Prepared compounds (10 concentration gradients by serial 3-fold dilution) were added to the wells using the HPD300 micro-dosing instrument. The cell plates were incubated in a carbon dioxide incubator for 7 days. HCC1395, HCC1428 and NCI-H460 were incubated in a 5%, 37° CO2 incubator. On the day of plate measurement, 384- or 96-well plates were first equilibrated at room temperature for 10-30 minutes, then to the 384- or 96-well plate was added CellTiter Glo reagent (384-well plate: 25 μL; 96-well plate: 100 μL), shaken for 10 minutes away from light, and incubated for 10 minutes. The incubated plates were placed into Victor NIVO reader plates, and the pharmacodynamic inhibition curves were plotted and IC50 values were calculated using XLFit.

HCC1395 = experiment: as above; assay type: cell-based; conditions: HCC1395, 7 days, CellTiter Glo
Protocol: as §1, §2

NCI-H460 = experiment: as above; assay type: cell-based; conditions: NCI-H460, 7 days, CellTiter Glo
Protocol: as §1, §2

[1] = class symbol, Bio PARylated His-TEV-PARP1 substrate, TR-FRET
[2] = numeric value in parentheses under the class symbol

Sequence of PARG (389-976) (Q86W56 389-976): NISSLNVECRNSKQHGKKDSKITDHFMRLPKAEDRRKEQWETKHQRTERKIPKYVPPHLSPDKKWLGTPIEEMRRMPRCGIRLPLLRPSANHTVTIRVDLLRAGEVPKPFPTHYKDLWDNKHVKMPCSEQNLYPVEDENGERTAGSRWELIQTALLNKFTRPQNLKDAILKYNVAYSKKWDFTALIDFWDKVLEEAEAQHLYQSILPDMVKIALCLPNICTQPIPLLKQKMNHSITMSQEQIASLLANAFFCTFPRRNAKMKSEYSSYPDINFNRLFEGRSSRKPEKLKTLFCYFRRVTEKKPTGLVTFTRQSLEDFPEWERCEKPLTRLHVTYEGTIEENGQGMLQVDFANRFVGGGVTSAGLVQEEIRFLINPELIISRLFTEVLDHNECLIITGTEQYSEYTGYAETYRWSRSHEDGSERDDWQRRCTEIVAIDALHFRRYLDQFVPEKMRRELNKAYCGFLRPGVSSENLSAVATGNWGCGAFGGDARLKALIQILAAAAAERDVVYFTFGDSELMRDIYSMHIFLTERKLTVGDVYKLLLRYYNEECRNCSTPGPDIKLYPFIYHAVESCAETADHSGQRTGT

SMILES	pIC50 (PARG (389-976); [1])	IC50 (HCC1428) [µM]	IC50 (HCC1395) [µM]	IC50 (NCI-H460) [µM]	pIC50 (PARG (389-976); [2])	IC50 (HCC1428; Homo sapiens, 168 h) [µM]	IC50 (HCC1395; Homo sapiens, 168 h) [µM]	IC50 (NCI-H460; Homo sapiens, 168 h) [µM]
CC(C)S(=O)(=O)N1CC=C(c2cc(S(=O)(=O)NC3(C#N)CC3)cc3c(-c4ccc(C(F)F)nn4)nn(C)c23)CC1 [Compound 78]	8.00 to 9.00	0.532	0.5	0.426				
CC(C)[S+]([O-])c1ccc(-c2cc(S(=O)(=O)NC3(C#N)CC3)cc3c(-c4nnc(C(F)(F)F)s4)nn(C)c23)nc1 (stereo not drawn) [Compound 48]	7.00 to 8.00		2.04	2.05				
CC(C)S(=O)(=O)c1ccc(-c2cc(S(=O)(=O)NC3(C#N)CC3)cc3c(-c4nnc(C(F)F)s4)nn(C)c23)cc1 [Compound 9]	8.00 to 9.00	1.17	0.197	0.147				
CC(C)S(=O)(=O)N1CC=C(c2cc(S(=O)(=O)NC3(C#N)CC3)cc3c(-c4nnc(C(F)(F)F)s4)nn(CC4COC4)c23)CC1 [Compound 60]	8.00 to 9.00					0.0778	0.181	0.115
CC(C)S(=O)(=O)c1ccc(-c2cc(S(=O)(=O)NC3(C#N)CC3)cc3c(-c4nnc(C(F)F)s4)nn(C)c23)cn1 [Compound 24]	> 9.00	0.578	0.65	0.493				
CN(C)S(=O)(=O)N1CC=C(c2cc(S(=O)(=O)NC3(C#N)CC3)cc3c(-c4nnc(C(F)F)s4)nn(C)c23)CC1 [Compound 32]	8.00 to 9.00	0.232	0.177	0.21	8.99			
CC(C)[S+]([O-])N1CC=C(c2cc(S(=O)(=O)NC3(C#N)CC3)cc3c(-c4nnc(C(F)F)s4)nn(C)c23)CC1 (stereo not drawn) [Compound 25]	> 9.00	0.152	0.206	0.185	9.47			
CC(C)S(=O)(=O)N1CC=C(c2cc(S(=O)(=O)NC3(C#N)CC3)cc3c(-c4nnc(C(F)(F)F)s4)nn(CC(F)(F)F)c23)CC1 [Compound 58]	8.00 to 9.00	0.201	0.253	0.216				
CC(C)C(=O)N1CCN(c2cc(S(=O)(=O)NC3(C#N)CC3)cc3c2cnn3-c2nnc(C(F)F)s2)CC1 [1′, reference compound]	8.00 to 9.00				8.72	1.38	1.29	0.796
CC(C)S(=O)(=O)N1CC=C(c2cc(S(=O)(=O)NC3(C#N)CC3)cc3c(-c4nnc(C(F)F)s4)n(CC4CC4)nc23)CC1 [Compound 44]			1.05	1.07				
CC(C)S(=O)(=O)N1CC=C(c2cc(S(=O)(=O)NC3(C#N)CC3)cc3c(-c4nnc(C(F)(F)F)s4)nn(Cc4ccncc4)c23)CC1 [Compound 59]	8.00 to 9.00						0.357	0.27
CC(C)S(=O)(=O)N1CCC(c2cc(S(=O)(=O)NC3(C#N)CC3)cc3c(-c4nnc(C(F)(F)F)s4)nn(C)c23)=C(CN(C)C)C1 [Compound 74]	8.00 to 9.00	0.0621	0.156					
CC(C)S(=O)(=O)C1CC=C(c2cc(S(=O)(=O)NC3(C#N)CC3)cc3c(-c4nnc(C(F)F)s4)nn(C)c23)CC1 (stereo not drawn) [Compound 31]	8.00 to 9.00	0.507	0.641	0.457	8.94			
Cn1nc(-c2nnc(C(F)F)s2)c2cc(S(=O)(=O)NC3(C#N)CC3)cc(C3=CCN(S(=O)(=O)C4COC4)CC3)c21 [Compound 22]	> 9.00	1.09	0.605	0.714				
CC(C)S(=O)(=O)N1CCN(c2c(F)c(S(=O)(=O)NC3(C#N)CC3)cc3c(-c4nnc(C(F)(F)F)s4)nn(C)c23)CC1 [Compound 56]	> 9.00	0.0472	0.0475					
CC(C)S(=O)(=O)N1CC=C(c2cc(S(=O)(=O)NC3(C#N)CC3)cc3c(-c4nnc(C(F)F)s4)nn(C)c23)C(F)C1 (stereo not drawn) [Compound 69]	> 9.00		0.296	0.292				

Second part, the molecule after the results:

pIC50 (PARG (389-976); [1])	IC50 (HCC1428) [µM]	IC50 (HCC1395) [µM]	IC50 (NCI-H460) [µM]	pIC50 (PARG (389-976); [2])	IC50 (HCC1428; Homo sapiens, 168 h) [µM]	IC50 (HCC1395; Homo sapiens, 168 h) [µM]	IC50 (NCI-H460; Homo sapiens, 168 h) [µM]	SMILES
> 9.00	0.196	0.0532	0.0414	9.92				CC(C)S(=O)(=O)N1CC=C(c2cc(S(=O)(=O)NC3(C)CC3)cc3c(-c4nnc(C(F)F)s4)nn(C)c23)CC1 [Compound 19]
> 9.00	0.698	0.284	0.162					CC(C)S(=O)(=O)N1CCN(c2cc(S(=O)(=O)NC3(C#N)CC3)cc3c(-c4nnc(C(F)(F)F)s4)nn(C)c23)CC1 [Compound 35]
> 9.00	0.616	0.691	0.5					CC(C)S(=N)(=O)N1CC=C(c2cc(S(=O)(=O)NC3(C#N)CC3)cc3c(-c4nnc(C(F)F)s4)nn(C)c23)CC1 (stereo not drawn) [Compound 33]
> 9.00	0.466	0.183	0.124					COCC(C)S(=O)(=O)N1CC=C(c2cc(S(=O)(=O)NC3(C#N)CC3)cc3c(-c4nnc(C(F)F)s4)nn(C)c23)CC1 (stereo not drawn) [Compound 23]
> 9.00					0.151	0.169	0.148	Cn1nc(-c2nnc(C(F)F)s2)c2cc(S(=O)(=O)NC3(C#N)CC3)cc(C3=CCN(S(=O)(=O)C4CCC4)CC3)c21 [Compound 12]
> 9.00	0.0978	0.127	0.0729					CC(C)S(=O)(=O)N1CCC(c2cc(S(=O)(=O)NC3(C#N)CC3)cc3c(-c4nnc(C(F)F)s4)nn(C)c23)=C(CO)C1 [Compound 36]
> 9.00	0.0865		0.139	9.80				CC(C)S(=O)(=O)N1CC=C(c2cc(S(=O)(=O)NC3(C#N)CC3)cc3c(-c4nnc(C(F)F)s4)nn(CCN(C)C)c23)CC1 [Compound 26]
> 9.00	0.117	0.0955	0.0561					CC(C)S(=O)(=O)N1CC=C(c2cc(S(=O)(=O)NC3(C#N)CC3)cc3c(-c4nnc(C(F)(F)F)s4)nn(C)c23)CC1 [Compound 15]
> 9.00					0.399	0.126	0.122	Cn1nc(-c2nnc(C(F)F)s2)c2cc(S(=O)(=O)NC3(C#N)CC3)cc(C3=CCN(S(=O)(=O)C4(C)CC4)CC3)c21 [Compound 14]
> 9.00	0.215	0.0423	0.0408	9.92				CC(C)S(=O)(=O)N1CC=C(c2cc(S(=O)(=O)NC3(CF)CC3)cc3c(-c4nnc(C(F)F)s4)nn(C)c23)CC1 [Compound 18]
> 9.00	0.342	0.308						CC(C)S(=O)(=O)N1CCC(c2cc(S(=O)(=O)NC3(C#N)CC3)cc3c(-c4nnc(C(F)F)s4)nn(C)c23)=C(CN(C)C)C1 [Compound 71]
> 9.00	3.02	3.95	2.81	10.22				Cn1nc(-c2nnc(C(F)F)s2)c2cc(S(=O)(=O)NC3(C#N)CC3)cc(C3=CCN(S(=O)(=O)C4CNC4)CC3)c21 [Compound 20]
> 9.00	0.343	0.27						CC(C)S(=O)(=O)N1CCC(c2cc(S(=O)(=O)NC3(C#N)CC3)cc3c(-c4nnc(C(F)F)s4)nn(C)c23)=C(C=O)C1 [Compound 70]
> 9.00	0.45	0.787	0.656	9.21				CC(C)[S+]([O-])C1CC=C(c2cc(S(=O)(=O)NC3(C#N)CC3)cc3c(-c4nnc(C(F)F)s4)nn(C)c23)CC1 (stereo not drawn) [Compound 30]
> 9.00	0.208	0.836						CC(C)S(=O)(=O)N1CCC(c2cc(S(=O)(=O)NC3(C#N)CC3)cc3c(-c4nnc(C(F)(F)F)s4)nn(C)c23)=C(C(N)=O)C1 [Compound 55]
> 9.00	0.4	0.432	0.366					CC(C)S(=O)(=O)N1CCC2(c3cc(S(=O)(=O)NC4(C#N)CC4)cc4c(-c5nnc(C(F)F)s5)nn(C)c34)OC2C1 (stereo not drawn) [Compound 38]
